The results in this text go back to a melting point compilation (Tetko et al.; mined from patent text by program, amines drawn as free bases though some values may be those of a salt).

One may read the melting point as the temperature, or range, at which the solid turns liquid.

Turning to `Cc1sc2[nH]c(=S)nc(N)c2c1C`, the melting point is > 260 °C.
The compound `C=CCOC(=O)CC(=O)NC1C(=O)N2C1SC(C)(C)C2C(=O)OCC=C` (stereo not drawn) came in with a melting point of 59 to 60 °C.
As for `CC(C(=O)N(C)C)n1nc(-c2ccccc2)c2c1CCCC2` (stereo not drawn), the figure is 101 to 103 °C.
The figure for `C=C(Nc1nc(-c2ccccc2)c(-c2nc3ccccc3c(=O)n2-c2ccccc2C)s1)c1ccco1` is 262 to 263 °C.
As for `OCc1c[nH]c2c1ccc1c3ccccc3[nH]c12`, the figure is > 295 °C.
`COc1ccccc1C(=O)N1CCCC(=O)c2ccc(Cl)cc2CCC1=O` gave a melting point of 179 °C.
`CCc1ccc(N)c(C(=O)c2ccccc2)c1` gave a melting point of 57 to 59 °C.
The figure for `CCCn1c(C)nn(-c2ccc([N+](=O)[O-])cc2)c1=O` is 125 °C.
The figure for `COc1cccc2c1C(=O)c1c(OC)cc(Cc3ccccc3C(O)=S)cc1C2=O` is 235 to 237 °C.
The figure for `COc1ccccc1-c1cc(C(C)(C)C)c(O)c(C(C)(C)C)c1` is 98.5 to 100 °C.
Compound `C=C(C)c1ccc(C(C)(c2ccc(C(=C)C)cc2)c2ccc(C(=C)C)cc2)cc1` came in with a melting point of 28 °C.
Take `CC(=O)c1ccc(CNS(=O)(=O)c2ccc(C)cc2)cc1`: the melting point lay in the range of 125 to 128 °C.
As for `C(=Cc1ccccc1)COc1ccc2c(c1)OCO2`, the melting point amounted to 83 °C.
The figure for `CCCC(=O)NCCc1c[nH]c2ccc(OCc3ccccc3)cc12` is 112 to 114 °C; for `CCOC(=O)N1Cc2ccccc2C2(Cc3ccccc3O2)C1` (stereo not drawn) it is 65 to 75 °C; for `COC(=O)c1ccc2cc(-c3ccc(CO)c(C45CC6CC(CC(C6)C4)C5)c3)ccc2c1` it is 212 °C.
Compound `CCn1nc(-c2ccccc2)c(C(C)=O)c(Nc2ccc(CN)cc2)c1=O` registered a melting point of 139 °C.
As for `Cc1noc(C)c1-c1cc(OC2SCC(O)C(O)C2O)ccn1` (stereo not drawn), the figure is 143 to 147 °C; as for `CCOC(=O)c1cc(=O)c(O)c(-c2ccccc2)o1`, 155 to 157 °C.
As for `CCCSc1nc(C)nc(S)c1[N+](=O)[O-]`, the figure is 162 to 164 °C; as for `Cc1cc(OCc2cccc(C(=O)O)c2)c([N+](=O)[O-])cc1S(=O)(=O)N(C)C`, 220 to 221 °C; as for `Cc1cccc(NC(=O)NCC(=O)N(c2ccccc2)c2ccccc2CC(=O)NC(C)(C)C)c1`, 216 °C.
As for `CCSc1cc(C)nc(SCC)c1NC(=O)CN1CCN(CCSc2nc3cccc([N+](=O)[O-])c3o2)CC1`, the figure is 50 to 52 °C; as for `OC1CC=C(c2ccc(Cl)cc2)CC1` (stereo not drawn), 108 to 112 °C.
Consider `CCOC(=O)c1sc2nc(CBr)c(CC)c(=O)n2c1C`, for which the melting point was 146 to 148 °C.
As for `[N-]=[N+]=C(S(=O)(=O)C1CCCCC1)S(=O)(=O)C1CCCCC1`, the figure is 130 to 131 °C; as for `Cc1ccn(-c2ccc(C(=O)N3Cc4cccnc4N(C)c4ccccc43)c(C(F)(F)F)c2)n1`, 188 to 190 °C; as for `Oc1cc2c(cc1CNc1ccccc1)OCCC2`, 135 to 137 °C.
As for `CC#Cc1cc(=O)n2nc(S(=O)(=O)CCCCCC)sc2n1`, the figure is 122 to 125 °C; as for `Cc1ccc(C(=O)O)c2c1CCCO2`, 140 °C; as for `CC(C)(N)c1ccc(-c2nc(Nc3cccc(C(F)(F)F)c3)ncc2C#N)cc1`, 192 °C.
The figure for `COc1ccc(-n2nc(N(C)C)cc2-c2ccc(OCCO)cc2)cc1` is 120 to 122 °C; for `CC(=O)NC1CCc2[nH]c3c(F)cc(F)cc3c2C1` (stereo not drawn) it is 179 to 183 °C; for `COC(=O)c1ccc(OCCCC#N)c(Cl)c1` it is 144 °C.
On to `N#Cc1ccc(CN(O)Cc2ccc(C#N)cc2)cc1`, for which the melting point was in the range of 172 to 175 °C.
As for `OCC1(c2ccccc2)CCN(CCC(c2ccccc2)(c2ccccc2)c2ccccn2)CC1`, the melting point is 148 to 151 °C.
The figure for `CN(Cc1ccccc1)CC1CN(c2c(F)cc3c(=O)c(C(=O)O)cn(C4CC4)c3c2F)CCO1` (stereo not drawn) is 155 to 157 °C.
As for `CCC(=O)OC(CC)c1nc2c(C(F)(F)F)cccc2c(O)c1C(=O)Nc1nccs1` (stereo not drawn), the figure is 187 °C; as for `O=C(NCCCCCCOC(=O)Oc1ccc([N+](=O)[O-])cc1)OC1CCN(C(=O)OCc2ccccc2)CC1`, 78 to 80 °C.
As for `O=C1NC(=O)c2cc(Nc3ccc(O)c(O)c3)c(Nc3ccccc3)cc21`, the figure is 204 to 205 °C; as for `N=C(NO)c1ccc(-c2ccc(-c3ccc(C(=N)NO)o3)cc2)cc1`, 229 to 230 °C; as for `CC(=O)NCc1ccc2c(Cl)cn(C3CCN(CCc4ccc(F)cc4)CC3)c2c1`, 101 to 102 °C.
The compound `CCOC(=O)c1cnn(-c2ccc(OCC(C)(C)C(=O)OC)c(C#N)c2)c1` returned a melting point of 95 to 96 °C.
The figure for `O=C(O)c1nn(-c2ccc(Cl)cc2Cl)c(-c2ccc(Cl)cc2)c1COCCO` is 182 °C; for `c1ccc(COc2ccc3[nH]c(-c4ccccc4)cc3c2)cc1` it is 168 to 170 °C; for `O=C1CCCCC1C(C[N+](=O)[O-])c1ccc(Cl)c(Cl)c1` (racemic) it is 109 to 110 °C.
`Nc1nc(N)c(CCCC(CO)c2ccc(C(=O)N[C@@H](CCC(=O)O)C(=O)O)cc2)c(O)n1` (stereo partly drawn) had a melting point of 164 °C.
Turning to `C#Cc1cc2c(cc1Cl)C=C(C(=O)O)C(C(F)(F)F)O2` (stereo not drawn), the melting point is > 300 °C.
As for `CC(C)c1ccc2c(c1)c(Sc1ccccc1)c(CCC(C)(C)C(=O)O)n2Cc1ccc(Cl)cc1`, the figure is 164 to 166 °C; as for `CN(C)C1CCN(C(=O)N2CCC(c3[nH]nc4c3C(=O)c3c(NC(=O)NN5CCOCC5)cccc3-4)CC2)CC1`, 172 to 174 °C; as for `O=c1[nH]c2ccc(CCN3CCN(c4ncnc5ccccc45)CC3)cc2o1`, 200 °C.
As for `CN(C)C(=O)CC(c1ccc(OC(F)F)c(OCC2CC2)c1)N1Cc2cccc(N)c2C1=O` (stereo not drawn), the figure is 70 to 72 °C.
The figure for `O=C1N(Cc2cnc(Cl)s2)c2ccccc2C12COc1cc3c(cc12)OCO3` (stereo not drawn) is 195 to 198 °C; for `N[C@H]1CC[C@@H](N2CCNC2=O)CC1` it is 121 to 123 °C.
On to `O=C(O)c1ccccc1SC1CCOC1=O` (stereo not drawn), for which the melting point is 180 to 182 °C.
As for `Cc1cc(C#N)c2c(c1C)C(=O)CC2`, the figure is 160 to 163 °C; as for `CCOC(=O)C1C(=O)N(C)c2ccc(Cl)cc2S1(=O)=O` (stereo not drawn), 86 to 91 °C; as for `CCCc1c(OCCCCC(C)(C)c2nnn[nH]2)ccc(C(C)=O)c1O`, 112 to 115 °C.
As for `O=C(Cl)Oc1ccc(Cl)c(Cl)c1`, the figure is 51 to 53 °C; as for `Nc1nc(-c2ccc(Cl)cc2)c(CCC(=O)N2CCS(=O)(=O)CC2)s1`, 220 to 222 °C.
The figure for `N#Cc1ccc(C=O)cc1F` is 83 °C; for `CC1=CC(=C(C#N)C#N)C=C(C)S1(=O)=O` it is 176 to 177 °C; for `CCN1CCc2ccc(Nc3ncc(Cl)c(NCCNS(C)(=O)=O)n3)cc2CC1` it is 146 °C.
Compound `CC(=O)Nc1ccc(CCCOCCCCCCNCC(O)c2cc(Cl)c(N)c(Cl)c2)nc1` (stereo not drawn) displayed a melting point of 66 to 67 °C.
As for `CC(=O)Oc1c(OC(C)=O)c([C@H]2CC[C@H](c3ccc(Cl)cc3)CC2)c(OC(C)=O)c2ccccc12`, the figure is 177 to 179 °C; as for `NC(=O)c1sc(Oc2ccc3c(c2)OCO3)c2c1CCc1cnoc1-2`, 167 to 169 °C; as for `CC1(C)Cc2ccccc2C1c1cnccc1C(=O)O` (stereo not drawn), 254 to 257 °C.
As for `CN1CCCC1Cc1cn(Cc2ccccc2)c2ccc(C(C#N)S(=O)(=O)N(C)C(c3ccccc3)c3ccccc3)cc12` (stereo not drawn), the figure is 152 to 155 °C.
As for `OC1CSC(Oc2cncc(-c3nccs3)c2)C(O)C1O` (stereo not drawn), the figure is 204 °C.
`CS(=O)(=O)Nc1cc(-c2nc3ccccn3c2Br)c(F)cc1F` yielded a melting point of 202 °C.
Regarding `O=[N+]([O-])c1cccc(/C=C/c2nc(C3CCCCCCC3)cs2)c1`, the melting point was in the range of 64 to 65 °C.
Consider `O=C1N(CCCCl)c2ccccc2C12COc1cc3c(cc12)OCO3` (stereo not drawn), for which the melting point fell in the range of 144 to 146 °C.
As for `COc1ccc(OC)c(C=CC(=O)Nc2cnc3c(C)cc(C)cc3c2-c2ccccc2Cl)c1`, the figure is 209 to 210 °C; as for `N#Cc1cccc(C=CCN2CCc3nc(N)sc3CC2)c1`, 136 to 140 °C; as for `CC1(C)CON(CC2=C(Cl)CC(=NCc3ccccc3O)C=C2)C1=O`, 105 to 107 °C.
As for `CN(C)C(=O)c1c(-c2ccc(F)cc2)ccc2ccccc12`, the figure is 103 to 104 °C; as for `O=C1c2nc(O)ccc2C(=O)c2c(-c3ccccc3NC(=O)C(F)(F)F)ccnc21`, > 260 °C.
The figure for `CCC(CO)(CO)NC(=O)Nc1ccccc1CCc1cc(C(C)(C)C)c(O)c(C(C)(C)C)c1` is 145 to 146 °C; for `COc1cc2c(cc1OC(C)C)-c1c(-c3cccs3)c3c(n1CC2)C(=O)N(C(C)C)CCN(C(=O)OC(C)(C)C)C3` it is 205 to 206 °C; for `CS(=O)(=O)Nc1ccc([N+](=O)[O-])cc1C=C1CCCCC1` it is 174 to 175 °C.
`CCCCSc1nsnc1OC1CCNC1` (stereo not drawn) yielded a melting point of 99 to 100 °C.
Take `CCCCc1nc(Cl)c(CC(=O)O)n1Cc1ccc(OCc2ccccc2C(=O)O)cc1`: the melting point lay within 170 to 172 °C.
As for `Cc1cc(=O)oc2cccc(SC(=O)N(C)C)c12`, the figure is 129 °C; as for `O=C(O)COc1cc(F)c(N2CCOCC2)cc1C(=O)NCc1ccc(Br)cc1F`, 180 °C.
The figure for `COc1cc2c3c(cccc3c1N1CCCCC1)C(=O)N(O)C2=O` is 204 to 205 °C; for `O=C(NCc1ccccn1)Nc1cc(NC(=O)c2ccccn2)ccn1` it is 206 to 207 °C; for `CC(=O)OCC(C)(Sc1cc2ccccc2[nH]1)c1ccccc1` (stereo not drawn) it is 105 to 106 °C.
The figure for `O=C(O)c1cccc(-c2ccc(Cl)c3cc(Cc4cc(F)cc(Cl)c4)sc23)c1` is 110 to 114 °C.
